Values after ≈ are worked out from the molar mass of the structure shown. Where two headings read alike, the source gives them in different places.
Tests used:
[1] = test system: Serratia Marcescens 58; assay: Protecting effect against experimental infections in mice; format: in vivo; conditions: sc, 96 h, ICR mice, i.p. challenge 1.2 × 10^7 cells/mouse, s.c. two divisional doses at 1 hr. and 3 hrs. after infection
Protocol: (§1) Male ICR strain mice aged 4 weeks, each weighing 18.5-21.5 g. were used in groups of 10 mice. The test bacteria were cultured overnight at 37° C. on Trypticase-soy agar and then suspended in 5% mucin to obtain the suspension corresponding to each challenge cells. Mice were inoculated intraperitoneally with 0.5 ml. of the suspension. A solution of test compound was given subcutaneously to the mice in various dosage one hour after the challenge. The ED50 values were calculated from the number of surviving mice for each dosage after four days of observation.
^*3 treated with two divisional doses at 1 hr. and 3 hrs. after […]

[2] = test system: Escherichia coli 54; assay: as above; format: in vivo; conditions: Escherichia coli, 54, sc, 96 h; ICR mice, i.p. challenge 1.1 × 10^7 cells/mouse, s.c. one hour after challenge, survival after four days
Protocol: as §1

[3] = test system: Klebsiella pneumoniae 39; assay: as above; format: in vivo; conditions: Klebsiella pneumoniae, 39, sc, 96 h; ICR mice, i.p. challenge 8 × 10^6 cells/mouse, s.c. one hour after challenge, survival after four days
Protocol: as §1

[4] = test system: Proteus rettgeri 24; assay: as above; format: in vivo; conditions: Providencia rettgeri, 24, sc, 96 h; ICR mice, i.p. challenge 9.9 × 10^6 cells/mouse, s.c. one hour after challenge, survival after four days
Protocol: as §1

[5] = test system: Escherichia coli 54; assay: MIC against the infecting strain; format: cell-based; conditions: Escherichia coli, 54, 20 h
Protocol: (§2) In vitro antibacterial activity was determined by the two-fold agar-plate dilution method as described below.
(§3) One loopful of the 100-fold dilution of an overnight culture of each test strain in Trypticase-soy broth was streaked on heart infusion agar (HI-agar) containing graded concentrations of the test compound and incubated at 37° C. for 20 hours. The minimal inhibitory concentration (MIC) was expressed in μg/ml.
(§4) ^*2 100fold dilution of the overnight

[6] = test system: Serratia Marcescens 58; assay: MIC against the infecting strain; format: cell-based; conditions: 20 h
Protocol: as §2, §3, §4

[7] = test system: Klebsiella pneumoniae 39; assay: MIC against the infecting strain; format: cell-based; conditions: Klebsiella pneumoniae, 39, 20 h
Protocol: as §2, §3, §4

[8] = test system: Proteus rettgeri 24; assay: MIC against the infecting strain; format: cell-based; conditions: Providencia rettgeri, 24, 20 h
Protocol: as §2, §3, §4

[9] = test system: Staphylococcus aureus 209P JC-1; assay: In vitro antibacterial activity, two-fold agar-plate dilution method; format: cell-based; conditions: HI-agar, 37° C., 20 hours, 100-fold diluted overnight culture
Protocol: as §3, with “In vitro antibacterial activity was determined by the two-fold agar-plate dilution method as described below. One” for “One”

[10] = test system: Proteus mirabilis 18; assay: as above; format: cell-based; conditions: HI-agar, 37° C., 20 hours, 100-fold diluted overnight culture
Protocol: as §3, with “In vitro antibacterial activity was determined by the two-fold agar-plate dilution method as described below. One” for “One”

[11] = test system: Escherichia coli. NIHJ JC-2; assay: as above; format: cell-based; conditions: NIHJJC2, HI-agar, 37° C., 20 hours, 100-fold diluted overnight culture
Protocol: as §3, with “In vitro antibacterial activity was determined by the two-fold agar-plate dilution method as described below. One” for “One”

[12] = test system: Pseudomonus aeruginosa NCTC-10490; assay: as above; format: cell-based; conditions: HI-agar, 37° C., 20 hours, 100-fold diluted overnight culture
Protocol: as §3, with “In vitro antibacterial activity was determined by the two-fold agar-plate dilution method as described below. One” for “One”

[13] = test system: Serratia marcescens 35; assay: as above; format: cell-based; conditions: HI-agar, 37° C., 20 hours, 100-fold diluted overnight culture
Protocol: as §3, with “In vitro antibacterial activity was determined by the two-fold agar-plate dilution method as described below. One” for “One”

[14] = test system: Klebsiella pneumoniae 20; assay: as above; format: cell-based; conditions: HI-agar, 37° C., 20 hours, 100-fold diluted overnight culture
Protocol: as §3, with “In vitro antibacterial activity was determined by the two-fold agar-plate dilution method as described below. One” for “One”

[15] = test system: Proteus vulgaris IAM-1025; assay: as above; format: cell-based; conditions: IAM1025, HI-agar, 37° C., 20 hours, 100-fold diluted overnight culture
Protocol: as §3, with “In vitro antibacterial activity was determined by the two-fold agar-plate dilution method as described below. One” for “One”

[16] = Acute toxicity in rats; parameters: species or system rat (ICL-SD strain); conditions: rat, in vivo, 7 days observation
Protocol: Ten male and 10 female rats aged 6 weeks (ICL-SD strain) were used per group. Test compound dissolved in distilled water was given subcutaneously and intravenously to the animals. […] The LD50 values were calculated from the number of dead animals by the Litchfield-Wilcoxon method.

[17] = inoculum size 10^0 (overnight culture)
[18] = inoculum size 10^-2 (100fold dilution of the overnight culture)
[19] = inoculum size 10^0 (overnight culture), read-out: MIC

SMILES | ED50 [1] [mg/kg] | ED50 [2] [mg/kg] | ED50 [3] [mg/kg] | ED50 [4] [mg/kg] | MIC [5, 17] [µg/mL] | MIC [5, 18] [µg/mL] | MIC [6, 19] [µg/mL] | MIC [7, 17] [µg/mL] | MIC [7, 18] [µg/mL] | MIC [8, 17] [µg/mL] | MIC [8, 18] [µg/mL] | also measured
CO/N=C(\C(=O)NC1C(=O)N2C(C(=O)O)=C(COC(C)=O)CSC12)c1csc(N)n1 (stereo not drawn) [Reference, 7[2(2-Amino-4-thiazolyl)-2-methoxyiminoacetamido] cephalospolanic acid (syn isomer), reference compound] | 31.4 | 2.8 | 0.995 | 1.17 | 3.13 (≈ 6.87 µM) | 0.1 (≈ 0.22 µM) | 50 (≈ 110 µM) | 3.13 (≈ 6.87 µM) | 0.05 (≈ 0.11 µM) | 50 (≈ 110 µM) | 0.1 (≈ 0.22 µM) | MIC [6]: 1.56 µg/mL (≈ 3.43 µM)
CO/N=C(\C(=O)NC1C(=O)N2C(C(=O)O)=CCSC12)c1csc(N)n1 (stereo not drawn) [Compound 1, 7-[2-(2-aminothiazol-4-yl)-2-methoxyiminoacetamido]-3-cephem-4-carboxylic acid (syn isomer)] | 3.56 | 0.95 | < 0.98 | 0.39 | 0.78 (≈ 2.03 µM) | 0.05 (≈ 0.13 µM) | 25 (≈ 65.2 µM) | 0.39 (≈ 1.02 µM) | ≤ 0.025 | 1.56 (≈ 4.07 µM) | ≤ 0.025 | MIC [9]: 6.25 µg/mL (≈ 16.3 µM); MIC [10]: ≤ 0.025 µg/mL; MIC [11]: ≤ 0.025 µg/mL; MIC [12]: 0.39 µg/mL (≈ 1.02 µM); MIC [13]: 1.56 µg/mL (≈ 4.07 µM); MIC [14]: ≤ 0.025 µg/mL; MIC [15]: ≤ 0.025 µg/mL; LD50 at 168 h ([16]; iv, female, i.v., read-out: LD50 i.v.): > 8000 mg/kg; LD50 at 168 h ([16]; iv, male, i.v., read-out: LD50 i.v.): ~8000 mg/kg; LD50 at 168 h ([16]; sc, female, s.c., read-out: LD50 s.c.): > 8000 mg/kg; LD50 at 168 h ([16]; sc, male, s.c., read-out: LD50 s.c.): > 8000 mg/kg; MIC ([6]; inoculum size 10^-2 (100fold dilution of the overnight culture), read-out: MIC): 0.39 µg/mL (≈ 1.02 µM)

— patent publication US4298529A, “Alkoxyimino dioxy butyric acid derivatives” (Fujisawa Pharmaceutical Co., Ltd., priority 1978, dated 1981)
